Measured values taken from patent publication US11912682B2, “Isoindolinone compounds” (Monte Rosa Therapeutics, Inc., priority 2021, dated 2024).
Like-named read-outs stand apart in the source and are kept apart here.

Tests used:
[1] = biological target: Full length wild-type cereblon CRBN (Homo sapiens (Human), UniProt Q96SW2); test: fluorescence polarization (FP) assay, cereblon binding
From the text: Compound activity was monitored in a fluorescence polarization (FP) homogeneous assay using 1-[5-({2-[2-(2-{[2-(2,6-dioxopiperidin-3-yl)-1,3-dioxo-2,3-dihydro-1H-isoindol-4-yl]oxy}acetamido)ethoxy]ethyl}carbamoyl)pentyl]-3,3-dimethyl-2-[(1E,3E)-5-[(2E)-1,3,3-trimethyl-5-sulfo-2,3-dihydro-1H-indol-2-ylidene]penta-1,3-dien-1-yl]-3H-indol-1-ium-5-sulfonate as a fluorescent probe. Unless otherwise stated, all reagents were purchased from Sigma Aldrich. […] Full length wild-type cereblon CRBN (80.0 nM, 10 μL) was incubated in assay buffer containing 20 mM HEPES (pH 8.0), […], 0.5 mM TCEP and 0.05% Tween 20 in the presence or absence of compound (300 nL). Inhibitors were stored as 10 mM DMSO stocks in an inert environment (low humidity, dark, low oxygen, room temperature) using the Storage Pod System. […] Following incubation at room temperature for 30 min, the assay was initiated by dispensing the probe to a final concentration of 5 nM (2.5 nL of a 20 μM stock) using the Echo ESXX. […] The FP signal was subsequently normalized to the no-compound control (i.e., DMSO). Analysis and IC50 values were derived using Dotmatics (Dotmatics UK) software.

GSPT1 = GSPT1 (Homo sapiens (Human), UniProt P15170+Q96SW2); test: immunofluorescence assay for GSPT1 degradation in CAL-51 cells (Example 4); assay type: cell-based
Chain of GSPT1 (P15170 whole entry): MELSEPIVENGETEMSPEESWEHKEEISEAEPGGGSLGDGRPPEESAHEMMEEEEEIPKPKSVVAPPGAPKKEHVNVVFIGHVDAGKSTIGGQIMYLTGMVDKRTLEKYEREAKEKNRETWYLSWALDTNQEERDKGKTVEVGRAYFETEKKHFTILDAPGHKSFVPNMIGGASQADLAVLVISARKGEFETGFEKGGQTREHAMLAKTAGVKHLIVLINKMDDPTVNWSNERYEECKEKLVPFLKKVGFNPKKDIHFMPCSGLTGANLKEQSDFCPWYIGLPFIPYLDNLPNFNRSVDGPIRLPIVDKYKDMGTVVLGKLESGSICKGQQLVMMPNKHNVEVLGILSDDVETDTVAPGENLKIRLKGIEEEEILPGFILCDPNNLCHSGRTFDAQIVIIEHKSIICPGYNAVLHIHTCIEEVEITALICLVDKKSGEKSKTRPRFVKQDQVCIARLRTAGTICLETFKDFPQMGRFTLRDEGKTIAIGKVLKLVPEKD
Chain of GSPT1 (Q96SW2 whole entry): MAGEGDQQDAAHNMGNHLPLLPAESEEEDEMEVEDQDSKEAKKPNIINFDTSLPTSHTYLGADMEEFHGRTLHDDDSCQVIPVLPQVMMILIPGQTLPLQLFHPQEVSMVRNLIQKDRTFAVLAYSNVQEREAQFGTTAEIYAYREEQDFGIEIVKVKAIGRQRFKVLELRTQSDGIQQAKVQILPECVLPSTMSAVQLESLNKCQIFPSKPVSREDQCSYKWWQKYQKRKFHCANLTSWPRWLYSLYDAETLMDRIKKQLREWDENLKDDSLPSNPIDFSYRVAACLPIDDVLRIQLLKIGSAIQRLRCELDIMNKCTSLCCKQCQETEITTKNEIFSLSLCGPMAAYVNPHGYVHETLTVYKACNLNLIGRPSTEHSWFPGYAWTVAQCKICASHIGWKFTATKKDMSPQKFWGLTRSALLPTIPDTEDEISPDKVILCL
Chain of GSPT1 (Q16531 2-1140 partner): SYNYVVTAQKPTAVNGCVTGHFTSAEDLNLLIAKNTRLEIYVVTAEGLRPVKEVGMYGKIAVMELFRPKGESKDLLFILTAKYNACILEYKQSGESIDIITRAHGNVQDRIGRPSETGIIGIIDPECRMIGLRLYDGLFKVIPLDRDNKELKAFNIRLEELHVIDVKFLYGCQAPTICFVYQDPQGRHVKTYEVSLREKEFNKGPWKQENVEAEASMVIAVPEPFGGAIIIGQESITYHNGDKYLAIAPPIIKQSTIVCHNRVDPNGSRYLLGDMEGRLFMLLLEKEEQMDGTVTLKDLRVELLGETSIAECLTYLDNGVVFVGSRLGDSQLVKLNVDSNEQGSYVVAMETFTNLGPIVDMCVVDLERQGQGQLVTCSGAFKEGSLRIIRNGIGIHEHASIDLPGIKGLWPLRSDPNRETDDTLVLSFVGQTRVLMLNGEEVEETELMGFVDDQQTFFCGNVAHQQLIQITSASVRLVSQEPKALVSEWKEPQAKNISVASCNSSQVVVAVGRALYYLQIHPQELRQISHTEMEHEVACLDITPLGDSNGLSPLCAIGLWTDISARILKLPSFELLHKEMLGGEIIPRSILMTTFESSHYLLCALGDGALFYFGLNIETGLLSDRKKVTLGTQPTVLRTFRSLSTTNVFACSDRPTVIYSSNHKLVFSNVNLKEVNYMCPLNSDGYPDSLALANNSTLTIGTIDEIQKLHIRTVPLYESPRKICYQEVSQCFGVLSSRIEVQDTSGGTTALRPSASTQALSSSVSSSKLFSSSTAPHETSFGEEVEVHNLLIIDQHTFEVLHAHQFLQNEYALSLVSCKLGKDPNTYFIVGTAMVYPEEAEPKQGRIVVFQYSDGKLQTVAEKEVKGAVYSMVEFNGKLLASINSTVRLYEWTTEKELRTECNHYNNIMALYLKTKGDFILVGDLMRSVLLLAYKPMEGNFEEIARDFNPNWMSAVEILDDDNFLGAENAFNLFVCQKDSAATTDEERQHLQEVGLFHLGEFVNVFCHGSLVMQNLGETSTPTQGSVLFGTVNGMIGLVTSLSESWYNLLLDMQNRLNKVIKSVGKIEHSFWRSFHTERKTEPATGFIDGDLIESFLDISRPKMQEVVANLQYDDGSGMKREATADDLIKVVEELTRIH
Protocol: The representative compounds were tested in an immunofluorescence assay for their activity to bind to degrade GSPT1. CAL-51 cells were purchased from DSMZ (cat. Number ACC302), sub-cultured in 90% Dulbecco's MEM (4.5 g/L glucose, Gibco 11965) +10% heat inactivated FBS (BioConcept, 2-01F136I) and incubated at 37° C., 5% CO2. For the assay, imaging microtiterplate Cell Carrier 96 Ultra (Perkin Elmer 6055302) were pre-coated with Fibronectin (Sigma F085, 30 μl at 0.2 μg/ml) in PBS (100 μl, Gibco 14190) for 45 min at room temperature, rinsed with PBS and CAL-51 cells (30 K cells/well) were plated and let to adhere overnight. Cells were treated with compounds typically using a serial dilution ranging from 30 μM to 0.1 nM for 6 hours. Compounds were stored at 10 mM DMSO stocks. Vehicle (DMSO), positive (CC-885, 10 μM) and rescue controls (positive control plus 0.2 μM bortezomib) were also included atthis stage. Cells were subsequently rinsed with PBS and fixed in 10% Formalin solution (50 μl, Sigma HT5011)) for 20 mins at room temperature. Following three consecutive PBS washes (100 μl), cells were permeabilized in 0.1% Triton X-100 in PBS (Sigma 93443, 50 μl) for 15 mins at room temperature. Following three further PBS washes, 50 μl blocking buffer (1% BSA, Sigma A4503, in PBS) was added for 45 min for signal-to-noise reduction.
Primary antibody (human GSPT1, Sigma HPA052488) was diluted in blocking buffer (dil.1/300, 35 μl/well) and incubated with the cells overnight at 4° C. After three PBS washes, Alexa-fluor 488 coupled secondary antibodies (Invitrogen, A32731, dil.1/1000), Alexa-fluor 647-Phalloidin (Invitrogen, A22287, dil.1/200) and DAPI (Thermo, #62248, dil.1/1000) were diluted in blocking buffer and incubated with the samples for 2 hours at room temperature. After three final PBS washes, samples were conserved in 100 μl PBS in the dark, until measurement. Image acquisition was performed on the Operetta High-Content Imager (Perkin-Elmer). Fluorescence intensity of Alexa-Fluor 488 (GSPT1), Alexa-Fluor 647 (Actin) and DAPI (Nucleus) were measured. For the determination of GSPT1 DC50 values, a custom algorithm implemented in the PerkinElmer image analysis software Harmony-Acapella® was developed. After user-defined setting of adjustment parameters, the analysis was run identically without human intervention for all image fields. DAPI staining of the nuclei was used to determine the location of cells using standard nuclei detection modules. Segmentation artifacts were removed by threshold-based filters for area, roundness and intensity. The outline of the cells was determined analogously from the sum of the normalized, smoothed DAPI and Actin channel, starting from each nucleus. The Alexa-Fluor 488 (GSPT1) signal intensity in each cell was finally measured, in order to obtain a Mean intensity per cell. GSPT1 degradation (DC50) was calculated after normalization to controls and data import in CDD vault Database, using non-linear regression.

[2] = 6 hours, read-out: Activity for GSPT1 degradation, Code (DC50)
[3] = GSPT1 degradation, read-out: DC50 value

Chain of Full length wild-type cereblon CRBN (Q96SW2 whole entry): as the sequence (Q96SW2 whole entry) above

| SMILES | IC50 ([1]; read-out: rFP IC50) | DC50 (GSPT1; [2]) | DC50 (GSPT1; [3]) | IC50 ([1]; read-out: IC50 value) |
| --- | --- | --- | --- | --- |
| C[C@H]1CCCN1c1ccc(NC(=O)OCc2ccc3c(c2)C(=O)N(C2CCC(=O)NC2=O)C3)cn1 (stereo partly drawn) [Compound 156, (2-(2,6-dioxopiperidin-3-yl)-3-oxoisoindolin-5-yl)methyl (6-((S)-2-methylpyrrolidin-1-yl)pyridin-3-yl)carbamate] | < 500 nM | < 30 nM | ≤ 30 nM |  |
| O=C1CCC(N2Cc3ccc(COC(=O)Nc4ccc(C5COC5)cc4)cc3C2=O)C(=O)N1 (centres unmarked) [Compound 81] | < 500 nM | 30 to 300 nM |  |  |
| O=C1CCC(N2Cc3ccc(COC(=O)Nc4ccnc(-c5ccccc5)c4)cc3C2=O)C(=O)N1 (centres unmarked) [Compound 149] | < 500 nM | > 300 nM |  |  |
| Cc1cc(C)cc(NC(=O)OCc2ccc3c(c2)C(=O)N(C2CCC(=O)NC2=O)C3)c1 (centres unmarked) [Compound 8] |  | < 30 nM | ≤ 30 nM | < 1100 nM |
| O=C1CCC(N2Cc3ccc(COC(=O)Nc4ccc(N5CCC5)nc4)cc3C2=O)C(=O)N1 (centres unmarked) [Compound 107] | < 500 nM | > 300 nM |  |  |
| O=C1CCC(N2Cc3ccc(COC(=O)Nc4cnc5c(c4)COCC5)cc3C2=O)C(=O)N1 (centres unmarked) [Compound 54] | < 500 nM | > 300 nM |  |  |
| O=C1CCC(N2Cc3ccc(COC(=O)NC4CCCC4)cc3C2=O)C(=O)N1 (centres unmarked) [Compound 29] |  | > 300 nM |  | < 1100 nM |
| Cc1c(Cl)cc(NC(=O)OCc2ccc3c(c2)C(=O)N(C2CCC(=O)NC2=O)C3)cc1OCC1CCNC1 (centres unmarked) [Compound 52] |  | > 300 nM |  | < 1100 nM |
| CC1COc2cc(NC(=O)OCc3ccc4c(c3)C(=O)N(C3CCC(=O)NC3=O)C4)ccc21 (centres unmarked) [Compound 103] |  | 30 to 300 nM |  | < 1100 nM |
| O=C1CCC(N2Cc3ccc(COC(=O)Nc4ccc(F)c(OC(F)(F)F)c4)cc3C2=O)C(=O)N1 (centres unmarked) [Compound 61] | > 1700 nM | < 30 nM | ≤ 30 nM |  |
| Cc1c(Cl)cc(NC(=O)OCc2ccc3c(c2)C(=O)N(C2CCC(=O)NC2=O)C3)cc1CN1CC2CC1CO2 (centres unmarked) [Compound 13] |  | < 30 nM | ≤ 30 nM | < 1100 nM |
| O=C1CCC(N2Cc3ccc(COC(=O)Nc4ccc(F)c(OC(F)F)c4)cc3C2=O)C(=O)N1 (centres unmarked) [Compound 32] | > 1700 nM | 30 to 300 nM |  |  |
| Cc1ncc(NC(=O)OCc2ccc3c(c2)C(=O)N(C2CCC(=O)NC2=O)C3)cc1OC(F)(F)F (centres unmarked) [Compound 91] |  | < 30 nM | ≤ 30 nM | < 1100 nM |
| O=C1CCC(N2Cc3ccc(COC(=O)Nc4ccc(-c5ccccc5)c(F)c4)cc3C2=O)C(=O)N1 (centres unmarked) [Compound 136, (2-(2,6-dioxopiperidin-3-yl)-3-oxoisoindolin-5-yl)methyl (2-fluoro-[1,1′-biphenyl]-4-yl) carbamate] | > 1700 nM | 30 to 300 nM |  |  |
| O=C1CCC(N2Cc3ccc(COC(=O)N4CCC(Oc5ccccc5)C4)cc3C2=O)C(=O)N1 (centres unmarked) [Compound 30] | < 500 nM | > 300 nM |  |  |
| O=C1CCC(N2Cc3ccc(COC(=O)Nc4ccc(OC(F)(F)F)cc4F)cc3C2=O)C(=O)N1 (centres unmarked) [Compound 148, (2-(2,6-dioxopiperidin-3-yl)-3-oxoisoindolin-5-yl)methyl(2-fluoro-4-(trifluoromethoxy)phenyl)carbamate] | > 1700 nM | > 300 nM |  |  |
| CC(NC(=O)OCc1ccc2c(c1)C(=O)N(C1CCC(=O)NC1=O)C2)c1ccccc1 (centres unmarked) [Compound 102] |  | > 300 nM |  | < 1100 nM |
| O=C1CCC(N2Cc3ccc(COC(=O)Nc4cc(Cl)cc(OC(F)F)c4)cc3C2=O)C(=O)N1 (centres unmarked) [Compound 19] | > 1700 nM | 30 to 300 nM |  |  |
| O=C1CCC(N2Cc3ccc(COC(=O)Nc4ccc(C5CC5(F)F)cc4)cc3C2=O)C(=O)N1 (centres unmarked) [Compound 101] | > 1700 nM | 30 to 300 nM |  |  |

| SMILES | IC50 ([1]; read-out: rFP IC50) | DC50 (GSPT1; [2]) | DC50 (GSPT1; [3]) | IC50 ([1]; read-out: IC50 value) |
| --- | --- | --- | --- | --- |
| Cc1cc(NC(=O)OCc2ccc3c(c2)C(=O)N(C2CCC(=O)NC2=O)C3)ccc1-c1ccccc1 (centres unmarked) [Compound 137, (2-(2,6-dioxopiperidin-3-yl)-3-oxoisoindolin-5-yl)methyl(2-methyl-[1,1′-biphenyl]-4-yl)carbamate] | > 1700 nM | < 30 nM | ≤ 30 nM |  |
| Cc1ccc(NC(=O)OC(C)c2ccc3c(c2)C(=O)N(C2CCC(=O)NC2=O)C3)cc1Cl (centres unmarked) [Compound 17] | > 1700 nM | > 300 nM |  |  |
| O=C1CCC(N2Cc3ccc(COC(=O)Nc4ccc5c(c4)CCCO5)cc3C2=O)C(=O)N1 (centres unmarked) [Compound 67] |  | 30 to 300 nM |  | < 1100 nM |
| CCc1cc(NC(=O)OCc2ccc3c(c2)C(=O)N(C2CCC(=O)NC2=O)C3)cc(Cl)c1C (centres unmarked) [Compound 45] | > 1700 nM | 30 to 300 nM |  |  |
| O=C1CCC(N2Cc3ccc(COC(=O)Nc4ccc(N5CCCC(F)(F)C5)nc4)cc3C2=O)C(=O)N1 (centres unmarked) [Compound 73] | < 500 nM | 30 to 300 nM |  |  |
| O=C1CCC(N2Cc3ccc(COC(=O)Nc4ccc(OC(F)(F)F)cc4)cc3C2=O)C(=O)N1 (centres unmarked) [Compound 154, (2-(2,6-dioxopiperidin-3-yl)-3-oxoisoindolin-5-yl)methyl (4-(trifluoromethoxy)phenyl)carbamate] | > 1700 nM | 30 to 300 nM |  |  |
| O=C1CCC(N2Cc3ccc(COC(=O)Nc4cnc(N5CCCCC5)c(F)c4)cc3C2=O)C(=O)N1 (centres unmarked) [Compound 72] |  | 30 to 300 nM |  | < 1100 nM |
| O=C1CCC(N2Cc3ccc(COC(=O)Nc4ccc(C5CC5)cc4)cc3C2=O)C(=O)N1 (centres unmarked) [Compound 39] |  | < 30 nM | ≤ 30 nM | < 1100 nM |
| CC1CCCN1c1ccc(NC(=O)OCc2ccc3c(c2)C(=O)N(C2CCC(=O)NC2=O)C3)cn1 (centres unmarked) [Compound 74] | < 500 nM | < 30 nM | ≤ 30 nM |  |
| O=C1CCC(N2Cc3ccc(COC(=O)Nc4ccc(N5CCCC5)nc4)cc3C2=O)C(=O)N1 (centres unmarked) [Compound 60] | < 500 nM | 30 to 300 nM |  |  |
| CCc1cc(NC(=O)OCc2ccc3c(c2)C(=O)N(C2CCC(=O)NC2=O)C3)cnc1C (centres unmarked) [Compound 55] |  | < 30 nM | ≤ 30 nM | < 1100 nM |
| CC1(c2ccc(NC(=O)OCc3ccc4c(c3)C(=O)N(C3CCC(=O)NC3=O)C4)cc2)COC1 (centres unmarked) [Compound 62] |  | 30 to 300 nM |  | < 1100 nM |
| O=C1CCC(N2Cc3ccc(COC(=O)Nc4ccc(N5CCC(F)(F)CC5)nc4)cc3C2=O)C(=O)N1 (centres unmarked) [Compound 78] | < 500 nM | 30 to 300 nM |  |  |
| O=C1CCC(N2Cc3ccc(COC(=O)NC4CCN(c5ccccn5)CC4)cc3C2=O)C(=O)N1 (centres unmarked) [Compound 35] | < 500 nM | > 300 nM |  |  |
| O=C1CCC(N2Cc3ccc(COC(=O)Nc4cnc(N5CCCCC5)cn4)cc3C2=O)C(=O)N1 (centres unmarked) [Compound 94] | < 500 nM | 30 to 300 nM |  |  |
| O=C1CCC(N2Cc3ccc(COC(=O)Nc4cnc(N5CCCCC5)nc4)cc3C2=O)C(=O)N1 (centres unmarked) [Compound 64] |  | 30 to 300 nM |  | < 1100 nM |
| Cc1c(CN2CCOCC2)cc(NC(=O)OCc2ccc3c(c2)C(=O)N(C2CCC(=O)NC2=O)C3)cc1OC(F)F (centres unmarked) [Compound 25] |  | < 30 nM | ≤ 30 nM | < 1100 nM |
| COc1cc(Cl)ccc1NC(=O)OCc1ccc2c(c1)C(=O)N(C1CCC(=O)NC1=O)C2 (centres unmarked) [Compound 38] |  | > 300 nM |  | < 1100 nM |
| CN1CCC(COc2cc(Cl)cc(NC(=O)OCc3ccc4c(c3)C(=O)N(C3CCC(=O)NC3=O)C4)c2)C1 (centres unmarked) [Compound 40] | < 500 nM | 30 to 300 nM |  |  |
